Data on 16 molecules can be found in US7671079B2, “Sulfonyltetrahydro-3H-benzo(e)indole-8-amine compounds as 5-hydroxytryptamine-6 ligands” (Wyeth LLC, priority 2003, dated 2010).

The target in the test is T1, human cloned 5-HT6 receptors (Homo sapiens, UniProt P50406).
T1 construct: expressed in transfected cells; host or cells: Hela cells
T1 sequence (P50406 whole entry): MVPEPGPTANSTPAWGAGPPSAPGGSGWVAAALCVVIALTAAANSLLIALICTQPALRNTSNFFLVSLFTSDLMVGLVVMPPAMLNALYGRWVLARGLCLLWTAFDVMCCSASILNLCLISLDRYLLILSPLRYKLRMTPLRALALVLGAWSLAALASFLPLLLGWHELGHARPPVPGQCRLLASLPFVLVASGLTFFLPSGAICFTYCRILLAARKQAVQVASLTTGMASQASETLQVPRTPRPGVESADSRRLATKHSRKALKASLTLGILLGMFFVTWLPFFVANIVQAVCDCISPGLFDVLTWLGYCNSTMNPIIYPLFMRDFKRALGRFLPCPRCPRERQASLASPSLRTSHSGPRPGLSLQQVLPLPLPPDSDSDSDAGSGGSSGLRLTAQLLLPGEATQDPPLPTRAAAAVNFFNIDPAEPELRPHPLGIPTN
Kind of test: 5-HT6 binding affinity, [3H]-LSD displacement on membranes of Hela cells expressing human cloned 5-HT6 receptors. Particulars: [3H]-LSD 3.0 nM, Hela cell membranes, 120 min at room temperature. Here is the method:
The affinity of test compounds for the serotonin 5-HT6 receptor is evaluated in the following manner. Cultured Hela cells expressing human cloned 5-HT6 receptors are harvested and centrifuged at low speed (1,000×g) for 10.0 min to remove the culture media. The harvested cells are suspended in half volume of fresh physiological phosphate buffered saline solution and recentrifuged at the same speed. This operation is repeated. The collected cells are then homogenized in ten volumes of 50 mM Tris.HCl (pH 7.4) and 0.5 mM EDTA. The homogenate is centrifuged at 40,000×g for 30.0 min and the precipitate is collected. The obtained pellet is resuspended in 10 volumes of Tris.HCl buffer and recentrifuged at the same speed. The final pellet is suspended in a small volume of Tris.HCl buffer and the tissue protein content is determined in aliquots of 10-25 μl volumes. Bovine Serum Albumin is used as the standard in the protein determination according to the method described in Lowry et al., J. Biol. Chem., 193:265 (1951). The volume of the suspended cell membranes is adjusted to give a tissue protein concentration of 1.0 mg/ml of suspension. The prepared membrane suspension (10 times concentrated) is aliquoted in 1.0 ml volumes and stored at −70° C. until used in subsequent binding experiments.
Binding experiments are performed in a 96 well microtiter plate format, in a total volume of 200 μl. […] The test compounds are added in 20.0 μl volume.
The reaction is allowed to proceed in the dark for 120 min at room temperature, at which time, the bound ligand-receptor complex is filtered off on a 96 well unifilter with a Packard Filtermate® 196 Harvester. The bound complex caught on the filter disk is allowed to air dry and the radioactivity is measured in a Packard TopCount® equipped with six photomultiplier detectors, after the addition of 40.0 μl Microscint®-20 scintillant to each shallow well. The unifilter plate is heat-sealed and counted in a PackardTopCount® with a tritium efficiency of 31.0%.
Binding in the presence of varying concentrations of test compound is expressed as a percentage of specific binding in the absence of test compound. The results are plotted as log % bound versus log concentration of test compound. […] A linear regression line of data points is plotted, from which the IC50 value is determined and the Ki value is determined based upon the following equation: Ki=IC50/(1+L/KD) where L is the concentration of the radioactive ligand used and KD is the dissociation constant of the ligand for the receptor, both expressed in nM.
With “3-[(2,3-dichlorophenyl)sulfonyl]-N,N-dimethyl-6,7,8,9-tetrahydro-3H-benzo[e]indol-8-amine [Example 16]”, the affinity corresponds to a Ki of 6 nM.

In turn, “3-[(2,6-dichloroimidazo[2,1-b][1,3]thiazol-5-yl)sulfonyl]-N,N-dimethyl-6,7,8,9-tetrahydro-3H-benzo[e]indol-8-amine [Example 19]” displayed an inhibition constant Ki of 5 nM.

As to `CN(C)C1CCc2ccc3c(ccn3S(=O)(=O)c3ccccc3)c2C1` (stereo not shown) [Example 8, N,N-Dimethyl-3-(Phenylsulfonyl)-6,7,8,9-tetrahydro-3H-benzo[e]indol-8-amine], affinity was put at a Ki of 1 nM.

Molecule `CN(C)C1CCc2ccc3c(ccn3S(=O)(=O)c3ccc(OC(F)(F)F)cc3)c2C1` (stereo not shown) [Example 9] came in with a Ki of 79 nM.

In turn, `CN(C)C1CCc2ccc3c(ccn3S(=O)(=O)c3ccc(F)cc3)c2C1` (stereo not shown) [Example 11, 3-[(4-fluorophenyl)sulfonyl]-N,N-dimethyl-6,7,8,9-tetrahydro-3H-benzo[e]indol-8-amine] gave a Ki of 19 nM.

Turning to `CN(C)C1CCc2ccc3c(ccn3S(=O)(=O)c3ccc(C(F)(F)F)cc3Cl)c2C1` (stereo not shown) [Example 12], the affinity corresponds to a Ki of 55 nM.

As to `CN(C)C1CCc2ccc3c(ccn3S(=O)(=O)c3ccc(F)c(F)c3)c2C1` (stereo not shown) [Example 13, 3-[(3,4-difluorophenyl)sulfonyl]-N,N-dimethyl-6,7,8,9-tetrahydro-3H-benzo[e]indol-8-amine], affinity was put at a Ki of 9 nM.

`CN(C)C1CCc2ccc3c(ccn3S(=O)(=O)c3ccccc3Cl)c2C1` (stereo not shown) [Example 14, 3-[(2-chlorophenyl)sulfonyl]-N,N-dimethyl-6,7,8,9-tetrahydro-3H-benzo[e]indol-8-amine] came in with a Ki of 2 nM.

The molecule `CN(C)C1CCc2ccc3c(ccn3S(=O)(=O)c3cccc(Cl)c3)c2C1` (stereo not shown) [Example 15, 3-[(3-chlorophenyl)sulfonyl]-N,N-dimethyl-6,7,8,9-tetrahydro-3H-benzo[e]indol-8-amine] came in with a Ki of 2 nM.

`CN(C)C1CCc2ccc3c(ccn3S(=O)(=O)c3ccc(F)cc3F)c2C1` (stereo not shown) [Example 17, 3-[(2,4-diflorophenyl)sulfonyl]-N,N-dimethyl-6,7,8,9-tetrahydro-3H-benzo[e]indol-8-amine] showed a Ki of 8 nM. Compared with the last molecule, the Ki is about 4-fold higher.

As for `CN(C)C1CCc2ccc3c(ccn3S(=O)(=O)c3c(Cl)nc4sccn34)c2C1` (stereo not shown) [Example 18, 3-[(6-chloroimidazo[2,1-b][1,3]thiazol-5-yl)sulfonyl]-N,N-dimethyl-6,7,8,9-tetrahydro-3H-benzo[e]indol-8-amine], affinity was put at a Ki of 6 nM.

With `Cc1noc(C)c1S(=O)(=O)n1ccc2c3c(ccc21)CCC(N(C)C)C3` (stereo not shown) [Example 20], the Ki stood at 59 nM.

Molecule `Cc1ccc(S(=O)(=O)n2ccc3c4c(ccc32)CCC(NC2CC2)C4)cc1` (stereo not shown) [Example 21] displayed a Ki of 103 nM.

In the case of `Cc1ccc(S(=O)(=O)n2ccc3c4c(ccc32)CCC(NC2CCC2)C4)cc1` (stereo not shown) [Example 24], the affinity, expressed as Ki, was 36 nM.

In turn, `CCCNC1CCc2ccc3c(ccn3S(=O)(=O)c3ccc(C)cc3)c2C1` (stereo not shown) [Example 25] returned a Ki of 12 nM.

Consider “N,N-dimethyl-3-(2-naphthylsulfonyl)-6,7,8,9-tetrahydro-3H-benzo[e]indol-8-amine [Example 10]”, for which the affinity corresponds to a Ki of 13 nM.

By Ki is commonly meant a dissociation constant, usually derived from enzyme kinetics or from competition with a known ligand.
